Values after ≈ are worked out from the molar mass of the structure shown. “Also recorded” adds a separate entry of the source. Where two headings read alike, the source gives them in different places. Bounds are passed on as bounds.

Holding throughout (test): microbe, parasite or virus in culture
Experiment [1] concerns wild type S. epidermidis RP62A. In kind it is cell-based, Staphylococcus epidermidis. Particulars: for MIC: Sensitive strain (SPase without the resistance-conferring Pro).
Experiment [2] has as its system lepB(P29S) S. aureus 8325. It counts as cell-based, Staphylococcus aureus. The following applies: for MIC: Sensitive (genetically sensitized) strain.
The subject of experiment [3] is lepB(P84L) E. coli MG1655. In kind it is cell-based, Escherichia coli.
Experiment [4] deals with lepB(P84L) P. aeruginosa PAO1. In kind it is cell-based, Pseudomonas aeruginosa.
Experiment [5] relates to spsB(S29P) S. epidermidis RP62A. In kind it is cell-based, Staphylococcus epidermidis.
In the next experiment the test system is wild type S. aureus 8325. It counts as cell-based, Staphylococcus aureus. The following applies: for MIC: Resistant strain (wild type).
In the next experiment the test system is wild type E. coli MG1655. It counts as cell-based, Escherichia coli.
For experiment [6], the system named is wild type P. aeruginosa PAO1. It counts as cell-based, Pseudomonas aeruginosa.
[7] abbreviates: Staphylococcus epidermidis, read-out: MIC.
Setting [8] is: Staphylococcus aureus, read-out: MIC.
The mark [9] stands for this setting: Escherichia coli, MG1655, Sensitive (genetically sensitized) strain, read-out: MIC.
The mark [10] stands for this setting: Pseudomonas aeruginosa, PAO1, Sensitive (genetically sensitized) strain, read-out: MIC.
Setting [11] is: Escherichia coli, MG1655, Resistant strain (wild type), read-out: MIC.
Where [12] appears, read: Pseudomonas aeruginosa, PAO1, Resistant strain (wild type), read-out: MIC.
The mark [13] stands for this setting: Sensitive (genetically sensitized) strain.
Setting [14] is: Table 3, P3 position derivatives, unit not given.

In the case of `C[C@@H]1NC(=O)[C@@H](N(C)C(=O)CNC(=O)[C@@H](C)NC(=O)[C@@H](CO)N(C)C(=O)c2ccc(-c3ccccc3)cc2)c2ccc(O)c(c2)-c2cc(ccc2O)C[C@@H](C(=O)O)NC1=O` [Compound 8], the activity in words result in experiment [1] is “retains some activity”. The MIC in experiment [1] (setting [7]) is 32 µg/mL (≈ 38.9 µM); in experiment [2] (setting [8]), > 64 µg/mL; in experiment [3] (setting [9]) it was > 64 µg/mL; in experiment [4] (setting [10]), > 64 µg/mL; in experiment [5] (setting [7]), > 64 µg/mL; in the experiment with wild type S. aureus 8325 (setting [8]) it was > 64 µg/mL. In addition, the MIC (in the experiment on wild type E. coli MG1655 (setting [11]); in experiment [6] (setting [12])) was > 64 µg/mL throughout.

Consider `CCc1ccc(-c2ccc(C(=O)N(C)[C@H](CO)C(=O)N[C@H](C)C(=O)NCC(=O)N(C)[C@@H]3C(=O)N[C@@H](C)C(=O)N[C@H](C(=O)O)Cc4ccc(O)c(c4)-c4cc3ccc4O)cc2)cc1` [Compound 9], for which the MIC in experiment [1] is 64 µg/mL (≈ 75.2 µM); in experiment [2] (setting [8]), > 64 µg/mL; in experiment [3] (setting [13]), >64 µg/mL; in experiment [4] (setting [10]), > 64 µg/mL; in experiment [5] (setting [7]) it was > 64 µg/mL; in the experiment with wild type S. aureus 8325 (setting [8]), > 64 µg/mL. The MIC (in the experiment with wild type E. coli MG1655 (setting [11]); in experiment [6] (setting [12])) was > 64 µg/mL each time.

`CCc1ccc(-c2ccc(C(=O)N(C)[C@H](CO)C(=O)N[C@H](C)C(=O)NCC(=O)N(C)[C@@H]3C(=O)N[C@@H](C)C(=O)N[C@H](C(=O)O)Cc4ccc(O)c(c4)-c4cc3ccc4O)cc2)cc1` [Compound 10]: the MIC was 8 µg/mL (≈ 9.4 µM) in experiment [1]; 64 µg/mL in experiment [2]; 16 µg/mL in experiment [3] (setting [13]); >64 µg/mL in experiment [4] (setting [13]); >64 µg/mL in experiment [5]; >64 µg/mL against wild type S. aureus 8325. Moreover, the MIC (against wild type E. coli MG1655 (Resistant strain (wild type)); in experiment [6] (Resistant strain (wild type))) was >64 µg/mL each time.

Turning to `CCCCCCCCc1ccc(-c2ccc(C(=O)N(C)[C@H](CO)C(=O)N[C@H](C)C(=O)NCC(=O)N(C)[C@@H]3C(=O)N[C@@H](C)C(=O)N[C@H](C(=O)O)Cc4ccc(O)c(c4)-c4cc3ccc4O)cc2)cc1` [Compound 12], the MIC in experiment [1] (setting [7]) was 0.5 µg/mL (≈ 0.535 µM); in experiment [2] (setting [8]) it was 8 µg/mL; in experiment [3] (setting [9]) it was 1 µg/mL; in experiment [4] (setting [10]) it was > 64 µg/mL; in experiment [5] (setting [7]) it was 32 µg/mL (≈ 34.2 µM); with wild type S. aureus 8325 (setting [8]), 64 µg/mL (≈ 68.4 µM). Also, the MIC (with wild type E. coli MG1655 (setting [11]); in experiment [6] (setting [12])) was > 64 µg/mL in each case. Moreover, the activity in words entry in experiment [5] is “active”.

Take `CCCCCCc1ccc(C(=O)N(C)[C@H](CO)C(=O)N[C@H](C)C(=O)NCC(=O)N(C)[C@@H]2C(=O)N[C@@H](C)C(=O)N[C@H](C(=O)O)Cc3ccc(O)c(c3)-c3cc2ccc3O)cc1` [Compound 13]: the MIC was 1 µg/mL (≈ 1.2 µM) in experiment [1] (setting [7]); 8 µg/mL in experiment [2] (setting [8]); 1 µg/mL in experiment [3] (setting [9]); > 64 µg/mL in experiment [4] (setting [10]); 16 µg/mL (≈ 19.3 µM) in experiment [5] (setting [7]); 16 µg/mL (≈ 19.3 µM) in the experiment with wild type S. aureus 8325 (setting [8]). The MIC (in the experiment on wild type E. coli MG1655 (setting [11]); in experiment [6] (setting [12])) was > 64 µg/mL in each case.

`CCCCCCCCc1ccc(C(=O)N(C)[C@H](CO)C(=O)N[C@H](C)C(=O)NCC(=O)N(C)[C@@H]2C(=O)N[C@@H](C)C(=O)N[C@H](C(=O)O)Cc3ccc(O)c(c3)-c3cc2ccc3O)cc1` [Compound 14]: the MIC in experiment [1] (setting [7]) is 8 µg/mL (≈ 9.31 µM); in experiment [2] (setting [8]) it was 64 µg/mL; in experiment [3] (setting [9]) it was 32 µg/mL; in experiment [4] (setting [10]), > 64 µg/mL; in experiment [5] (setting [7]), > 64 µg/mL; with wild type S. aureus 8325 (setting [8]) it was > 64 µg/mL. Moreover, the MIC (in the experiment on wild type E. coli MG1655 (setting [11]); in experiment [6] (setting [12])) was > 64 µg/mL each time.

`CCCCCCCCCCc1ccc(C(=O)N(C)[C@H](CO)C(=O)N[C@H](C)C(=O)NCC(=O)N(C)[C@@H]2C(=O)N[C@@H](C)C(=O)N[C@H](C(=O)O)Cc3ccc(O)c(c3)-c3cc2ccc3O)cc1` [Compound 15]: the MIC in experiment [1] (setting [7]) was 1 µg/mL (≈ 1.13 µM); in experiment [2] (setting [8]), 8 µg/mL; in experiment [3] (setting [9]), 8 µg/mL; in experiment [4] (setting [10]), 64 µg/mL; in experiment [5] (setting [7]), > 64 µg/mL; in the experiment with wild type S. aureus 8325 (setting [8]), > 64 µg/mL. The MIC (in the experiment on wild type E. coli MG1655 (setting [11]); in experiment [6] (setting [12])) was > 64 µg/mL in each case. Further, in the experiment with wild type S. aureus 8325, the activity in words entry was “has activity; also recorded: gains activity”.

`CCCCCCCCCCCCCCCC(=O)N1CC(O)C[C@@H]1C(=O)N[C@H](C)C(=O)NCC(=O)N(C)[C@@H]1C(=O)N[C@@H](C)C(=O)N[C@H](C(=O)O)Cc2ccc(O)c(c2)-c2cc1ccc2O` (some centres unmarked) [Compound 19]: the MIC in experiment [1] (setting [7]) is 4 µg/mL (≈ 4.48 µM); in experiment [2] (setting [8]) it was 4 µg/mL; in experiment [3] (setting [9]), > 64 µg/mL; in experiment [4] (setting [10]), > 64 µg/mL; in experiment [5] (setting [7]), 8 µg/mL (≈ 8.96 µM); in the experiment with wild type S. aureus 8325 (setting [8]) it was > 64 µg/mL. The MIC (in the experiment with wild type E. coli MG1655 (setting [11]); in experiment [6] (setting [12])) was > 64 µg/mL each time.

On to `CCCCCCCCCCCCCCCC(=O)N(C)[C@H](CO)C(=O)N[C@H](C)C(=O)NCC(=O)N(C)[C@@H]1C(=O)NCC(=O)N[C@H](C(=O)O)Cc2ccc(O)c(c2)-c2cc1ccc2O` [Compound 26], for which the “fold loss of activity relative to arylomycin C16” value in experiment [1] is given as 32 fold; in experiment [2], > 16 fold; in experiment [3] it was 32 fold; in experiment [4], > 16 fold. For the same compound, the “minimal inhibitory concentration (MIC)” value in experiment [1] is listed as 8; in experiment [2], >64; in experiment [3], 16; in experiment [4], >64.

For `CCCCCCCCCCCCCCCC(=O)N(C)[C@H](CO)C(=O)N[C@H](C)C(=O)NCC(=O)N(C)[C@@H]1C(=O)N[C@@H](CC)C(=O)N[C@H](C(=O)O)Cc2ccc(O)c(c2)-c2cc1ccc2O` [Compound 27], the “minimal inhibitory concentration (MIC)” value in experiment [1] is 0.5; in experiment [2], 8; in experiment [3], 1; in experiment [4], 4.

On to `CCCCCCCCCCCCCCCC(=O)N(C)[C@H](CO)C(=O)N[C@H](C)C(=O)NCC(=O)N(C)[C@@H]1C(=O)N[C@@H](CCC)C(=O)N[C@H](C(=O)O)Cc2ccc(O)c(c2)-c2cc1ccc2O` [Compound 28], for which the “minimal inhibitory concentration (MIC)” value is on record as 1 in experiment [1] (setting [14]), 8 in experiment [2] (setting [14]), 2 in experiment [3] (setting [14]) and 8 in experiment [4] (setting [14]).

`CCCCCCCCCCCCCCCC(=O)N(C)[C@H](CO)C(=O)N[C@H](C)C(=O)NCC(=O)N(C)[C@@H]1C(=O)N[C@@H](CCCC)C(=O)N[C@H](C(=O)O)Cc2ccc(O)c(c2)-c2cc1ccc2O` [Compound 29]: the “minimal inhibitory concentration (MIC)” value is listed as 4 in experiment [1], 16 in experiment [2], >128 in experiment [3] and >128 in experiment [4]. The “fold loss of activity relative to arylomycin C16” value in experiment [2] worked out at 32 fold.

`CCCCCCCCCCCCCCCC(=O)N(C)[C@H](CO)C(=O)N[C@H](C)C(=O)NCC(=O)N(C)[C@@H]1C(=O)N[C@@H](CCCCC)C(=O)N[C@H](C(=O)O)Cc2ccc(O)c(c2)-c2cc1ccc2O` [Compound 30]: the “minimal inhibitory concentration (MIC)” value in experiment [1] (setting [14]) is 4; in experiment [2] (setting [14]) it was 16; in experiment [3] (setting [14]), >128; in experiment [4] (setting [14]) it was >128. The “fold loss of activity relative to arylomycin C16” value in experiment [2] amounted to 32 fold.

In the case of `CCCCCCCCCCCCCCCC(=O)N(C)[C@H](CO)C(=O)N[C@H](C)C(=O)NCC(=O)N(C)[C@@H]1C(=O)NC(CC(F)(F)F)C(=O)N[C@H](C(=O)O)Cc2ccc(O)c(c2)-c2cc1ccc2O` (some centres unmarked) [Compound 33], the “fold loss of activity relative to arylomycin C16” value in experiment [1] is 32 fold; in experiment [2] it was “at least 16 fold”; in experiment [3], 8 fold; in experiment [4], “at least 16 fold”. The “minimal inhibitory concentration (MIC)” value in experiment [1] (setting [14]) is on record as 8; in experiment [2] (setting [14]) it was >64; in experiment [3] (setting [14]) it was 16; in experiment [4] (setting [14]), >64.

For the compound `CCCCCCCCCCCCCCCC(=O)N(C)[C@H](CO)C(=O)N[C@H](C)C(=O)NCC(=O)N(C)[C@@H]1C(=O)N[C@@H](C(C)C)C(=O)N[C@H](C(=O)O)Cc2ccc(O)c(c2)-c2cc1ccc2O` [Compound 34], the “minimal inhibitory concentration (MIC)” value came to 4 in experiment [1] (setting [14]), 32 in experiment [2] (setting [14]), 4 in experiment [3] (setting [14]) and 16 in experiment [4] (setting [14]). Moreover, in experiment [3], the activity in words result was “maintained activity”. The “fold loss of activity relative to arylomycin C16” value in experiment [4] came to 4 fold.

As to `CCCCCCCCCCCCCCCC(=O)N(C)[C@H](CO)C(=O)N[C@H](C)C(=O)NCC(=O)N(C)[C@@H]1C(=O)N[C@@H](CC(C)C)C(=O)N[C@H](C(=O)O)Cc2ccc(O)c(c2)-c2cc1ccc2O` [Compound 35], the “minimal inhibitory concentration (MIC)” value is 2 in experiment [1], 32 in experiment [2], 4 in experiment [3] and >64 in experiment [4]. The activity in words result in experiment [3] was “maintained activity”. Moreover, in experiment [4], the “fold loss of activity relative to arylomycin C16” value is reported as > 16 fold.

The values above are taken from US20160297851A1, “BROAD SPECTRUM […]” (priority 2012, published 2016).
